From publication PMC8389655, “Au2phen and Auoxo6, Two Dinuclear Oxo-Bridged Gold(III) Compounds, Induce Apoptotic Signaling in Human Ovarian A2780 Cancer Cells” (Biomedicines, 2021)

Assays:
[1] = tested on: ASK1; experiment: Western blot of phospho(Thr838)-ASK1 and total ASK1; type: cell-based, human; details: A2780, 24 h at 72 h IC50 dose, vs controls
Protocol: After drug treatments, cells were lysed in RIPA buffer supplemented with a cocktail of protease and phosphatase inhibitors. […] To favor the electrophoretic separation, 25% sample loading buffer (SLB) was added to the cell lysates. Here, 20 µg samples of proteins from controls and treated cells were loaded on 4–20% pre-cast SDS-PAGE gels and blotted onto PVDF membranes. Primary antibodies Bcl-2 (1:1000 dilution,#sc-7382, Santa Cruz, Dallas, Texas USA), Bax (1:1000 dilution, #sc-493, Santa Cruz), OXPHOS cocktail (1:1000 dilution, #ab110413, AbCam, Cambridge, UK), citrate synthase (1:1000 dilution, #sc-515640, Santa Cruz), ASK1 (1:1000 dilution, #sc-390275, Santa Cruz), phospho(Thr838)-ASK1 (1:1000 dilution, #CPA6042, Cohesion Biosciences, London, UK), AKT (1:1000 dilution, #sc-5298, Santa Cruz), and phospho(Ser473)-AKT (1:1000 dilution, #GTX128414, GeneTex, Irvine, CA, USA) were added to 2% non-fat dry milk in PBS-tween solution, while PVDF membranes were incubated overnight at 4 °C. Then, membranes were treated with horseradish peroxidase (HRP)-conjugated secondary antibodies (1:5000 dilution, Santa Cruz) and immunoreactive bands were detected with an ECL kit detection system on an Amersham Imager 600 (GE Healthcare, Chicago, IL, USA). For the quantification, a densitometric analysis of the bands was performed using ImageJ2 software version 2.0.0-rc-64 [23]. The intensities of the immunostained bands were normalized on the Coomassie brilliant blue R-250-stained total protein from the same PVDF membrane.

[2] = tested on: A2780 human ovarian cancer cell line; experiment: MTT antiproliferative assay on A2780 cells; type: cell-based; details: for IC50: 72 h of treatment, MTT assay, mean ± SD of three experiments, read-out: Half-maximal inhibitory concentration (IC50), A2780; for cytotoxic potency on A2780 higher than that of AuL12 (fold): from 72 h IC50 values on A2780
Protocol: The inhibition of cell proliferation by Au2phen, Auoxo6, and AuL12 on A2780 cell line was evaluated through MTT (3-(4,5-dimethylthiazol-2-yl)-2,5-diphenyltetrazolium bromide) test. Viable cells can convert MTT into formazan, which is coloured and detectable at 595 nm. Exponentially growing cells were seeded in 96 well-microplates at a density of 8 × 10^3 for 24 h and then gold compounds were added in fresh RPMI medium at concentrations ranging from 0.003 to 100 µM and incubated for 72 h. On the day of the test, cells were treated with 0.5 mg/mL MTT for 1 h at 37 °C. Following precipitation, blue formazan was dissolved in DMSO, and the optical density was read in a microplate reader interfaced with Microplate Manager/PV version 4.0 software (BioRad Laboratories, Hercules, USA). From the absorbance measurements, the half-maximal inhibitory concentration (IC50) value of each compound on A2780 cells was calculated using GraphPad Prism software version 6.0 (Graphpad Holdings, LLC, USA). The same protocol was applied on non-tumor cell lines, i.e., HEK and PNT1 cells.
The effects of these 72 h exposure IC50 doses on A2780 cell viability were also evaluated using an MTT time course assay at 12, 24, 48, and 72 h of drug exposure. The experimental protocol described above was applied.

[3] = tested on: caspase-3; experiment: FAM-FLICA caspase-3 activation, flow cytometry; type: cell-based, human; details: A2780, 72 h at 72 h IC50 dose, compared to controls
Protocol: In addition, caspase-3, caspase-8, and caspase-9 activation was assessed in treated and untreated cells. Likewise, cells were trypsinized, washed with PBS, and suspended in FAM-FLICATM caspase solution (FAM-DEVD-FMK caspase FLICA kit, ImmunoChemistry Technologies, MN 55431 USA) for 30 min at 37 °C. Cells were then washed twice with PBS and analyzed using a FACSCantoII flow cytometer (BD Biosciences, New Jersey, USA).

Compound | enhancement of phospho-ASK1 levels (phosphorylated-ASK1/total ASK1 ratio) [1] | IC50 [2] [nM] | cytotoxic potency on A2780 higher than that of AuL12 (fold) [2] [fold] | caspase-3 activation (fluorescence intensity) [3]
Cc1ccc2ccc3ccc(C)[n+]4c3c2[n+]1[Au-]41[O][Au-]2([O]1)[n+]1c(C)ccc3ccc4ccc(C)[n+]2c4c31.F[P-](F)(F)(F)(F)F.F[P-](F)(F)(F)(F)F [Au2phen, ((2,9-dimethyl-1,10-phenanthroline)2Au2(µ-O)2)(PF6)2] | about 15% | 800 ± 20 | 5 | ~ 40%
CCOC(=O)CN(C)C1=[S+][Au-]([Br])([Br])[S]1 [AuL12, dibromo(ethylsarcosinedithiocarbamate)gold(III), reference compound] | about 25% | 4000 ± 30 | – | ~ 40%
Cc1cccc2[n+]1[Au-]1([O][Au-]3([O]1)[n+]1c(C)cccc1-c1cccc(C)[n+]13)[n+]1c(C)cccc1-2.F[P-](F)(F)(F)(F)F.F[P-](F)(F)(F)(F)F [Auoxo6, ((6,6′-dimethyl-2,2′-bipyridine)2Au2(µ-O)2)(PF6)2] | about 23% | 1140 ± 180 | 3.5 | about 80%
